Data taken from patent US20080187572A1, “Matrix Metalloproteinase Inhibitors of Tgfb-Induced Subcapsular Cataract Formation” (McMaster University, priority 2005, published 2008).
“Also recorded” adds a separate entry of the source.

B1: TGFβ: TGFβ2 (R&D Systems), growth factor used to induce subcapsular cataract in cultured rat lenses (protein, UniProt P61812 303-414, looked up)
Transforming growth factor …: ALDAAYCFRNVQDNCCLRPLYIDFKRDLGWKWIHEPKGYNANFCAGACPYLWSSDTQHSRVLSLYNTINPEASASPCCVSQDLEPLTILYYIGKTPKIEQLSNMIVKSCKCS

Experiments:
[1] = test system: TGFβ-induced rat lens cataract; experiment: Optical analysis (BVD error) in ex-vivo TGFβ-induced rat lens cataract model
[2] = test system: TGFβ-induced subcapsular cataract formation; experiment: Subcapsular plaque/opacity formation in cultured rat lenses (photography); assay type: cell-based; conditions: 6 days
Procedure: The previously established TGFβ-induced rat lens model was utilized for these studies. Briefly, lenses were obtained from adult male Wistar rats and cultured in 3.5 ml of serum free M199 medium supplemented with 50 IU/ml penicillin, 50 μg/ml streptomycin and 2.5 μg/ml fungizone (Amersham Biosciences) overnight. […] Some lenses were co-treated with TGFβ2 and the […], GM6001 (liomastat) (Chemicon International) at concentrations ranging from 10 to 25 μM or the MMP-2-9 inhibitor ((2R)-[(4-Biphenylylsulfonyl)amino]-N-hydroxyl-3-phenylpropionamide) (Chemicon) concentrations of either 10 and 25 μM. The GM6001 negative control (N-t-Butoxycarbonyl-L-leucyl-L-tryptophan Methylamide) (Calbiochem) (25 μM) was also employed. Lenses were then harvested at subsequent time-points of 2, 4 or 6 days and then photographed using a digital camera mounted to a dissecting scope. The lenses were then fixed for histology and immunofluorescence, or used for optical analysis. The conditioned media was also collected from each treatment group for zymography and western blot analysis.
The MMP inhibitor GM6001 was employed in the rat subcapsular cataract model in order to determine whether it could effectively suppress TGFβ-induced subcapsular cataract formation. To carry out these experiments, excised rat lenses were treated with exogenous TGFβ for a period of 6 days. […]

[3] = test system: alpha smooth muscle actin (α-SMA); experiment: Immunofluorescent localization of αSMA in lens cross-sections; assay type: cell-based, rat; conditions: co-cultured with TGFβ 2 ng/ml, 6 days
Procedure: Lenses were collected from different treatment groups and fixed overnight in 1:99 acetic acid: ethanol solution, dehydrated, embedded in paraffin, and processed for routine histology. For histological analysis, 5 μm sections were stained with hematoxylin and eosin. Immunofluorescence was performed on 5 μm thick paraffin-embedded sections. Sections were incubated with primary antibody specific for alpha smooth muscle actin (α-SMA, 1:100, Sigma) and bound primary antibodies were visualized with a fluorescein-isothiocyanate (FITC) anti-mouse secondary antibody, (1:50, Jackson ImmunoResearch Laboratories). All sections were mounted in Vectasheild mounting medium with 4′,6-Diaminodino-2-Phenylindol (DAPI, Vector Laboratories) to visualize the nuclei.
To carry out these experiments, excised rat lenses were treated with exogenous TGFβ for a period of 6 days. An untreated control lens (A), a lens treated with TGF-β (2 ng/mL) (B), a lens co-cultured with TGFβ (2 ng/mL) and GM6001 (25 μM) (C) and a lens co-cultured with TGF-β and MMPI-2/9 (2 umol/L) (D) are shown following 6 days of culture.

[4] = test system: MMPs with gelatinolytic activity (MMP-2, MMP-9); experiment: Gelatin zymography of lens conditioned media; assay type: cell-based, rat; conditions: co-treated with TGFβ, 6 day time point, relative to TGFβ treated lenses
Procedure: An equal volume of each concentrate was electrophoresed on 10% SDS-polyacrylamide gels containing either 1 mg/ml gelatin or 2% beta-casein at a final concentration of 0.1% as the substrate. Following electrophoresis the gels were developed as described previously and stained in 0.5% coomassie brilliant blue for 1 hr followed by destaining with 10% iso-propanol. Sites of gelatinase or caseinase activity were detected as clear bands against a background of uniform staining, which was digitally photographed.
To examine the timing and level of induction of MMPs In subcapsular cataract formation zymography was performed on conditioned media of lenses from three different treatment groups (control, TGFβ, TGFβ plus GM6001 (25 μM)) and TGFβ plus MMPI-2/9 at the 6 day time point.

MMP-2 = experiment: Western blot of conditioned media for MMP-2; assay type: cell-based, rat; conditions: co-cultured with TGFβ
Procedure: (§1) To confirm the identity of the specific MMPs corresponding to the gelatinolytic bands in the zymograms and quantitate their levels over the 6 day time period, concentrated conditioned media from the treatment groups, control, TGFβ, TGFβ plus GM6001 (25 μM) and TGFβ plus MMPI-2/9, from three treatment times days 2, 4 and […], was subjected to western blot analysis using antibodies specific for both MMP-2 and MMP-9. Equal volumes of sample were electrophoresed on a 10% SDS-polyacrylamide gel. The resolved bands were electro-transferred onto a nitrocellulose membrane (Pall Corporation). Membranes were blocked with 5% skimmed milk powder in Tris-buffered saline (50 mM Tris base, NaCl pH 8.5) and 0.1% Tween-20 and then incubated overnight at 4° C. with a polyclonal antibody generated against MMP-9 (1:500; Chemicon International) or MMP-2 (1:500:Chemicon International) or E-adherin (1:1500; ED Transduction Laboratories).
Following this incubation, membranes were probed with an HRP-conjugated secondary antibody (1:7500;Amersham Biosciences) and ECL detection reagents (Amersham Biosciences). The western blots were scanned by a densitometer and analyzed by image quantification software (ImageJ, NIH, USA). […] Quantitative data were analyzed statistically using a student's t-test and expressed as ± standard deviation. […]

MMP-9 = experiment: Western blot of conditioned media for MMP-9 with densitometry; assay type: cell-based, rat; conditions: for MMP-9 protein in conditioned media (western blot, densitometry), FIG. 5B,C: co-treated with TGFβ 2 ng/ml, compared with TGFβ alone
Procedure: Equal volumes of sample were electrophoresed on a 10% SDS-polyacrylamide gel. The resolved bands were electro-transferred onto a nitrocellulose membrane (Pall Corporation). Membranes were blocked with 5% skimmed milk powder in Tris-buffered saline (50 mM Tris base, NaCl pH 8.5) and 0.1% Tween-20 and then incubated overnight at 4° C. with a polyclonal antibody generated against MMP-9 (1:500; Chemicon International) or MMP-2 (1:500:Chemicon International) or E-adherin (1:1500; ED Transduction Laboratories).
Following this incubation, membranes were probed with an HRP-conjugated secondary antibody (1:7500;Amersham Biosciences) and ECL detection reagents (Amersham Biosciences). The western blots were scanned by a densitometer and analyzed by image quantification software (ImageJ, NIH, USA). The relative density versus control ratio (RD/C) was estimated using Graph Pad Prism Program (GraphPad). Quantitative data were analyzed statistically using a student's t-test and expressed as ± standard deviation. A value of p<0.05 was considered significant.
The western blot data for MMP-9 from three separate experiments were analyzed by densitometry and the results are shown in FIG. 5C. Values are expressed as the Relative Density versus control ratio (RD/C)± standard deviation of 3 blots.

E-cadherin fragment = experiment: E-cadherin shedding, western blot of conditioned media; assay type: cell-based, rat; conditions: co-cultured with TGFβ, 6 day treatment
Procedure: as §1
To determine whether TGFβ treatment of the rat lens results in an induction of E-cadherin shedding and whether this can be modulated by MMPIs, previously concentrated conditioned media was obtained from the 6 day treatment groups outlined earlier, and subjected to western blot analyses using an antibody specific for extracellular domain of E-cadherin, and used in previous studies to detect the presence of soluble E-cadherin fragments. […]

E-cadherin mRNA = E-cadherin mRNA in lens epithelium by LCM and RT-QPCR; assay type: cell-based, rat; conditions: 6 day treatment; for E-cadherin mRNA level in lens epithelium versus TGFβ alone, FIG. 6B / E-cadherin mRNA level in lens epithelium versus controls, FIG. 6B: co-treated with TGFβ
Procedure: E-cadherin mRNA expression in the rat lens epithelial region was determined for lenses from different treatment groups, TGF-β, TGF-β plus GM6001 (25 μM), TGF-β plus MMPI-2/9 or control (6 day treatment time), using Real time quantitative PCR, (RT-QPCR). For these experiments, cryostat sections of lenses were subjected to Laser Capture Microdissection (LCM) in order to specifically isolate the cells. LCM was used to further ensure that cells of the subcapsular plaques were obtained and not left adherent to the underlying fiber cell mass, which may have occurred with manual dissection. Following treatment, lenses were placed in a cryostat mould containing Tissue-Tek OCT (Sakura Finetek Torrance, Calif.), and frozen on dry ice then stored at −70° C. The frozen tissue was then sectioned at 5-8 μm in a cryostat, mounted on non-coated clean glass slides, and stored again at −70° C. Immediately before Laser Capture Microdissection (LCM), the frozen sections were thawed for 10 seconds and then stained with HistoGene™LCM Frozen Section Staining kit (Arcturus, Mountain View, Calif.) using the protocol provided with strict adherence to RNAse-free conditions. The slides were then dried for 5 minutes after which LCM of the tissue was completed within two hours. LCM was then performed using the PixCell II (Arcturus), as described by others. The HistoGene stain allowed for the identification of the general morphology of the epithelium. Cells from the epithelium of the lens were then captured on CapSure Macro LCM Caps (Arcturus) using the PixCell II LCM Microscope (Arcturus) with a minimal beam diameter of 7.5 μrm. Total cellular RNA was then extracted from lifted cells using a PicoPure™ RNA Isolation kit (Arcturus Engineering Inc). Purified RNA was analyzed both qualitatively and quantitatively using an Agilent 2100 Bioanalyser (Agilent Technologies, Foster City, Calif., USA). Standard 20 μl reverse transcription reactions were preformed (SuperScript II, Life Technologies). The quality of the recovered cDNA was measured using a microfluidic gel analyzer (Agilent Technologies). E-Cadherin gene expression from recovered cDNA was analyzed using RT-PCR using a 96 well TaqMan optical reaction plate format on an ABI Prism 7700 sequence detection system (Applied Biosystems, Foster City, Calif., USA). RNA was normalized to 18S for each reaction. Each 25 μl PCR reaction (including controls) contained TaqMan Universal master mix, gene-specific forward and reverse primers (Mobix, Hamilton), and probes for target and endogenous control genes (Applied Biosystems). Serial dilutions (1-5 fold) of standard samples were set up in separate wells in duplicate, for both 18S and E-cadherin gene targets. Standard and unknown samples were added in a volume of 5 μl. Thermal cycling parameters consisted of the following: 2 minutes at 50° C., 10 minutes at 95° C. followed by 40 cycles of 15 seconds at 95° C. and 1 minute at 60° C. The number of target gene copies was calculated from a standard curve generated in parallel with each batch of samples. A linear relationship was detected over at least five orders of magnitude. In all experiments, the correlation coefficient was between 0.997 and 0.986. […] All PCR for E-cadherin cDNA quantification were performed using standard cDNA dilution curves. Quantitative data were analyzed statistically using a student's t-test and expressed as ±standard deviation. […]

[5] = TGFβ 2 ng/ml plus 25 μM test substance, 6 days

Molecule	BVD error versus control lenses, FIG. 3 [1, 5]	Levels of gelatinolytic bands in conditioned media, FIG. 5A [4]	MMP-2 protein in conditioned media (western blot), FIG. 5B (MMP-2)	MMP-9 protein in conditioned media (western blot, densitometry), FIG. 5B,C (MMP-9)	E-cadherin fragment in conditioned media, FIG. 6A (E-cadherin fragment)	E-cadherin mRNA level in lens epithelium versus TGFβ alone, FIG. 6B (E-cadherin mRNA)	E-cadherin mRNA level in lens epithelium versus controls, FIG. 6B (E-cadherin mRNA)	other results
CNC(=O)[C@H](Cc1c[nH]c2ccccc12)NC(=O)[C@H](CC(C)C)NC(=O)OC(C)(C)C [negative control for GM6001, N-t-Butoxycarbonyl-L-leucyl-L-tryptophan Methylamide]	significantly different from the controls	–	–	–	–	–	–	–
CNC(=O)[C@H](Cc1c[nH]c2ccccc12)NC(=O)[C@@H](CC(=O)NO)CC(C)C [GM6001]	not significantly different from the control lenses	reduced levels of all gelationolytic bands	undetectable levels, similar to controls	significant reduction (**P<0.001); also recorded: significantly attenuated	Suppression in the levels of the E-adherin fragment	significantly higher than those treated with TGFβ alone	significantly higher than that of controls	Subcapsular plaques / opacities, FIG. 4 ([2]; co-cultured with TGFβ 2 ng/mL, 25 μM): remained devoid of opacities; αSMA immunoreactivity in lens sections, FIG. 4 ([3]; 25 μM): no observable immunoreactivity to αSMA; BVD error versus control lenses, FIG. 3 ([1]; TGFβ 2 ng/ml plus 10 μM test substance, 6 days): significantly different from control lenses; BVD error versus control lenses, FIG. 3 ([1]; TGFβ 2 ng/ml plus 15 μM test substance, 6 days): significantly different from control lenses; BVD error versus control lenses, FIG. 3 ([1]; TGFβ 2 ng/ml plus 20 μM test substance, 6 days): not significantly different from the control lenses; Dosage effect on TGFβ-induced BVD error ([1]; TGFβ 2 ng/ml plus 10, 15, 20, 25 μM, 6 days): decrease in BVD error as the GM6001 concentration increases to 25 μM; BVD error (back vertex variability), FIG. 2 ([1]; day 6, lenses co-treated with TGF-β and GM6001, compared with TGF-β treated groups): both the TGF-β treated groups of lenses exhibited a significantly larger BVD error than the control group or the GM6001 co-treated lenses
O=C(NO)[C@@H](Cc1ccccc1)NS(=O)(=O)c1ccc(-c2ccccc2)cc1 [MMPI-2/9, (2R)-[(4-Biphenylylsulfonyl)amino]-N-hydroxyl-3-phenylpropionamide]	–	reduced levels of all gelationolytic bands	undetectable levels, similar to controls	significant attenuation of MMP-9	undetectable	significantly higher than those treated with TGFβ alone	significantly higher than that of controls	Subcapsular plaques / opacities, FIG. 4 ([2]; co-cultured with TGF-β): remained devoid of opacities; αSMA immunoreactivity in lens sections, FIG. 4 ([3]; inhibitor): no observable immunoreactivity to αSMA
B1	–	–	–	–	–	–	–	MMP-9 in conditioned media versus control, FIG. 5C (MMP-9; TGFβ 2 ng/ml alone): significant upregulation (*P<0.001); Suppression of E-cadherin mRNA in plaque tissue versus normal lens epithelium (E-cadherin mRNA; TGFβ alone): ~4 fold; BVD error versus controls ([1]; TGFβ alone, 6 days): statistically greater than in controls
